Where a name gives a salt, the structure may show the parent alone.
Tested on: patients with advanced solid tumours
Assay: Phase I safety: DLT and adverse events (CTCAE v3.0)
Conditions: Grades 3/4
[1] = level 1, 10 mg 3 days every 2 weeks, 3 patients

CCCCc1nc2cc(/C=C/C(=O)NO)ccc2n1CCN(CC)CC [SB939, 3-[2-butyl-1-(2-diethylaminoethyl)-1H-benzoimidazol-5-yl]-N-hydroxyacrylami-hydrochloride]
Myositis, no. of patients [1]: 0
Nausea, no. of patients [1]: 0
Neutropenia, no. of patients [1]: 1
QT prolongation, no. of patients [1]: 0
Supra ventricular arrythmia, no. of patients [1]: 0
Syncope, no. of patients [1]: 0
Thrombocytopenia, no. of patients [1]: 0
Ventricular arrythmias (PVCs), no. of patients [1]: 0
Ventricular bigemini, no. of patients [1]: 0
Vomiting, no. of patients [1]: 0
ALT (raised), no. of patients (level 2, 10 mg, 6 patients): 0
AST (raised), no. of patients (level 2, 10 mg, 6 patients): 0
Abdominal pain, no. of patients (level 2, 10 mg, 6 patients): 0
Alkaline phophatase (raised), no. of patients (level 2, 10 mg, 6 patients): 1
Altered taste, no. of patients (level 2, 10 mg, 6 patients): 0
Anaemia, no. of patients (level 2, 10 mg, 6 patients): 0
Anorexia, no. of patients (level 2, 10 mg, 6 patients): 0
Bilirubin (raised), no. of patients (level 2, 10 mg, 6 patients): 0
CPK, no. of patients (level 2, 10 mg, 6 patients): 0
Cardiac arrythmia other, no. of patients (level 2, 10 mg, 6 patients): 0
Cardiac dysfunction, no. of patients (level 2, 10 mg, 6 patients): 0
Cardiac ischaemia, no. of patients (level 2, 10 mg, 6 patients): 0
Constipation, no. of patients (level 2, 10 mg, 6 patients): 0
Creatinine (raised), no. of patients (level 2, 10 mg, 6 patients): 0
Diarrhoea, no. of patients (level 2, 10 mg, 6 patients): 0
Fatigue, no. of patients (level 2, 10 mg, 6 patients): 0
Leukopenia, no. of patients (level 2, 10 mg, 6 patients): 0
Lymphopenia, no. of patients (level 2, 10 mg, 6 patients): 2
Mucositis, no. of patients (level 2, 10 mg, 6 patients): 0
Myositis, no. of patients (level 2, 10 mg, 6 patients): 0
Nausea, no. of patients (level 2, 10 mg, 6 patients): 0
Neutropenia, no. of patients (level 2, 10 mg, 6 patients): 0
QT prolongation, no. of patients (level 2, 10 mg, 6 patients): 0
Supra ventricular arrythmia, no. of patients (level 2, 10 mg, 6 patients): 0
Syncope, no. of patients (level 2, 10 mg, 6 patients): 0
Thrombocytopenia, no. of patients (level 2, 10 mg, 6 patients): 0
Ventricular arrythmias (PVCs), no. of patients (level 2, 10 mg, 6 patients): 0
Ventricular bigemini, no. of patients (level 2, 10 mg, 6 patients): 0
Vomiting, no. of patients (level 2, 10 mg, 6 patients): 0
ALT (raised), no. of patients (level 3, 20 mg, 6 patients): 0
AST (raised), no. of patients (level 3, 20 mg, 6 patients): 0
Abdominal pain, no. of patients (level 3, 20 mg, 6 patients): 0
Alkaline phophatase (raised), no. of patients (level 3, 20 mg, 6 patients): 1
Altered taste, no. of patients (level 3, 20 mg, 6 patients): 0
Anaemia, no. of patients (level 3, 20 mg, 6 patients): 1
Anorexia, no. of patients (level 3, 20 mg, 6 patients): 0
Bilirubin (raised), no. of patients (level 3, 20 mg, 6 patients): 0
CPK, no. of patients (level 3, 20 mg, 6 patients): 1
Cardiac arrythmia other, no. of patients (level 3, 20 mg, 6 patients): 0
Cardiac dysfunction, no. of patients (level 3, 20 mg, 6 patients): 0
Cardiac ischaemia, no. of patients (level 3, 20 mg, 6 patients): 0
Constipation, no. of patients (level 3, 20 mg, 6 patients): 0
Creatinine (raised), no. of patients (level 3, 20 mg, 6 patients): 0
Diarrhoea, no. of patients (level 3, 20 mg, 6 patients): 0
Fatigue, no. of patients (level 3, 20 mg, 6 patients): 0
Leukopenia, no. of patients (level 3, 20 mg, 6 patients): 0
Lymphopenia, no. of patients (level 3, 20 mg, 6 patients): 0
Mucositis, no. of patients (level 3, 20 mg, 6 patients): 0
Myositis, no. of patients (level 3, 20 mg, 6 patients): 1
Nausea, no. of patients (level 3, 20 mg, 6 patients): 0
Neutropenia, no. of patients (level 3, 20 mg, 6 patients): 0
QT prolongation, no. of patients (level 3, 20 mg, 6 patients): 0
Supra ventricular arrythmia, no. of patients (level 3, 20 mg, 6 patients): 0
Syncope, no. of patients (level 3, 20 mg, 6 patients): 1
Thrombocytopenia, no. of patients (level 3, 20 mg, 6 patients): 0
Ventricular arrythmias (PVCs), no. of patients (level 3, 20 mg, 6 patients): 0
Ventricular bigemini, no. of patients (level 3, 20 mg, 6 patients): 0
Vomiting, no. of patients (level 3, 20 mg, 6 patients): 0
ALT (raised), no. of patients (level 4, 30 mg, 4 patients): 0
AST (raised), no. of patients (level 4, 30 mg, 4 patients): 0
Abdominal pain, no. of patients (level 4, 30 mg, 4 patients): 0
Alkaline phophatase (raised), no. of patients (level 4, 30 mg, 4 patients): 0
Altered taste, no. of patients (level 4, 30 mg, 4 patients): 0
Anaemia, no. of patients (level 4, 30 mg, 4 patients): 0
Anorexia, no. of patients (level 4, 30 mg, 4 patients): 0
Bilirubin (raised), no. of patients (level 4, 30 mg, 4 patients): 0
CPK, no. of patients (level 4, 30 mg, 4 patients): 0
Cardiac arrythmia other, no. of patients (level 4, 30 mg, 4 patients): 0
Cardiac dysfunction, no. of patients (level 4, 30 mg, 4 patients): 0
Cardiac ischaemia, no. of patients (level 4, 30 mg, 4 patients): 0
Constipation, no. of patients (level 4, 30 mg, 4 patients): 0
Creatinine (raised), no. of patients (level 4, 30 mg, 4 patients): 0
Diarrhoea, no. of patients (level 4, 30 mg, 4 patients): 0
Fatigue, no. of patients (level 4, 30 mg, 4 patients): 0
Leukopenia, no. of patients (level 4, 30 mg, 4 patients): 0
Lymphopenia, no. of patients (level 4, 30 mg, 4 patients): 0
Mucositis, no. of patients (level 4, 30 mg, 4 patients): 0
Myositis, no. of patients (level 4, 30 mg, 4 patients): 0
Nausea, no. of patients (level 4, 30 mg, 4 patients): 0
Neutropenia, no. of patients (level 4, 30 mg, 4 patients): 0
QT prolongation, no. of patients (level 4, 30 mg, 4 patients): 0
Supra ventricular arrythmia, no. of patients (level 4, 30 mg, 4 patients): 0
Syncope, no. of patients (level 4, 30 mg, 4 patients): 0
Thrombocytopenia, no. of patients (level 4, 30 mg, 4 patients): 0
Ventricular arrythmias (PVCs), no. of patients (level 4, 30 mg, 4 patients): 0
Ventricular bigemini, no. of patients (level 4, 30 mg, 4 patients): 0
Vomiting, no. of patients (level 4, 30 mg, 4 patients): 0
ALT (raised), no. of patients (level 5, 50 mg, 4 patients): 0
AST (raised), no. of patients (level 5, 50 mg, 4 patients): 0
Abdominal pain, no. of patients (level 5, 50 mg, 4 patients): 0
Alkaline phophatase (raised), no. of patients (level 5, 50 mg, 4 patients): 0
Altered taste, no. of patients (level 5, 50 mg, 4 patients): 0
Anaemia, no. of patients (level 5, 50 mg, 4 patients): 0
Anorexia, no. of patients (level 5, 50 mg, 4 patients): 0
Bilirubin (raised), no. of patients (level 5, 50 mg, 4 patients): 0
CPK, no. of patients (level 5, 50 mg, 4 patients): 0
Cardiac arrythmia other, no. of patients (level 5, 50 mg, 4 patients): 0
Cardiac dysfunction, no. of patients (level 5, 50 mg, 4 patients): 0
Cardiac ischaemia, no. of patients (level 5, 50 mg, 4 patients): 0
Constipation, no. of patients (level 5, 50 mg, 4 patients): 0
Creatinine (raised), no. of patients (level 5, 50 mg, 4 patients): 0
Diarrhoea, no. of patients (level 5, 50 mg, 4 patients): 0
Fatigue, no. of patients (level 5, 50 mg, 4 patients): 0
Leukopenia, no. of patients (level 5, 50 mg, 4 patients): 0
Lymphopenia, no. of patients (level 5, 50 mg, 4 patients): 2
Mucositis, no. of patients (level 5, 50 mg, 4 patients): 0
Myositis, no. of patients (level 5, 50 mg, 4 patients): 0
Nausea, no. of patients (level 5, 50 mg, 4 patients): 0
Neutropenia, no. of patients (level 5, 50 mg, 4 patients): 0
QT prolongation, no. of patients (level 5, 50 mg, 4 patients): 0
Supra ventricular arrythmia, no. of patients (level 5, 50 mg, 4 patients): 0
Syncope, no. of patients (level 5, 50 mg, 4 patients): 0
Thrombocytopenia, no. of patients (level 5, 50 mg, 4 patients): 0
Ventricular arrythmias (PVCs), no. of patients (level 5, 50 mg, 4 patients): 0
Ventricular bigemini, no. of patients (level 5, 50 mg, 4 patients): 0
Vomiting, no. of patients (level 5, 50 mg, 4 patients): 0
ALT (raised), no. of patients (level 5.5, 60 mg, 7 patients): 2

Source: PMC3048208 (British Journal of Cancer, 2011)
